Test results as given in US8802593B2 (priority 2009, dated 2014).

Columns and labels:
Format in all cases: in vivo
Fusarium graminearum = details: corn (Pioneer) seeds; QoI alone 10 g per 100 kg seeds; 15° C. for 15 days; seedling emergence
[1] = test system: Fusarium solani f. sp. pisi; assay: Test Example 1: seed treatment of pea, pea root rot, control value; details: Pisum sativum L seeds, Compound I 0, pea root rot after 16 days
Method: A DMSO solution of the compound I and a DMSO solution of the compound (1b) were respectively prepared. These solutions were mixed to prepare a DMSO solution containing predetermined concentrations of the compound I and the compound (1b). Ten (10) μL of the DMSO solution and 10 g of seeds of Pisum sativum L were mixed by shaking in a 50-ml conical tube and then allowed to stand overnight to prepare treated seeds. A plastic pot was filled with sandy soil and the treated seeds were sown on it and then covered with sandy soil which had been mixed with a bran culture of Fusarium solani f. sp. pisi. The sown seeds were watered and then cultured in a greenhouse at 20 to 24° C. […] After 16 days, the occurrence of pea root rot diseases was checked and the incidence of disease was calculated by Equation 1.
For comparison, a DMSO solution containing a predetermined concentration of the compound (1b) was prepared and subjected to the same test and then the incidence of disease was determined.
(§1) In order to calculate a control value, the same test was conducted in which the plants had been treated with none of the test compounds and the incidence of disease was determined.
(§2) The control value was calculated by the Equation 2 based on the incidence of disease thus determined. […]

wheat leaf rust = assay: Test Example 2: foliar spray on wheat, wheat leaf rust, control value; details: wheat (SHIROGANEKOMUGI) leaf spray, Compound I 0, 8 days at 23° C.
Method: A plastic pot was filled with sandy soil and seeds of wheat (SHIROGANEKOMUGI) were sown on it, followed by cultivation in a greenhouse for 10 days. A wettable powder of the compound I was prepared by mixing 10 parts of the compound I, 35 parts of a mixture of white carbon and a polyoxyethylene alkyl ether sulfate ammonium salt (weight ratio of 1:1) and 55 parts of […], followed by grinding the mixture. A wettable powder of the compound (1b) was prepared by mixing 10 parts of the compound (1b), 35 parts of a mixture of white carbon and a polyoxyethylene alkyl ether sulfate ammonium salt (weight ratio of 1:1) and 55 parts of […], followed by grinding the mixture. […] After allowing to stand overnight at 23° C. under high humidity followed by cultivation in an artificial climate laboratory at 23° C. for 8 days, leaf area and lesion area of the wheat leaves were checked and the incidence of disease was calculated by Equation 3. […]
as §1, §2

Fusarium avenaceum = assay: Test Example 4: seed treatment of corn, soil with Fusarium avenaceum, control value; details: corn (Pioneer) seeds; azoxystrobin alone 10 g per 100 kg seeds; 15° C. for 15 days; seedling emergence
Method: A DMSO solution of the compound I and a DMSO solution of azoxystrobin were respectively prepared. These solutions were mixed to prepare a DMSO solution containing predetermined concentrations of the compound I and azoxystrobin. Twenty-five (25) μL of each of the DMSO solution and 10 g of seeds of corn (Pioneer) were mixed by shaking in a 50-ml conical tube and then allowed to stand overnight to prepare treated seeds. A plastic pot was filled with sandy soil and the treated seeds were sown on it and then covered with sandy soil which had been mixed with a bran culture of Fusarium avenaceum. The sown seeds were watered and then cultured in a greenhouse at 15° C. for 15 days. The number of emerged seedlings was checked and the incidence of disease was calculated by Equation 4.
For comparison, a DMSO solution containing a predetermined concentration of azoxystrobin was prepared and subjected to the same test and then the incidence of disease was determined.
as §1
The control value was calculated by the Equation 2 based on the incidence of disease thus determined.

Structure (SMILES) | Control value (Fusarium graminearum) | further results
CNC(=O)C(OC)c1ccccc1COc1cc(C)ccc1C (racemic) [Compound (1b)] | 83 | Control value ([1]; Compound (1b) 1 g/100 kg seeds): 64; Control value ([1]; Compound (1b) 5 g/100 kg seeds): 64; Control value (wheat leaf rust; Compound (1b) 10 ppm): 50; Control value (wheat leaf rust; Compound (1b) 20 ppm): 81
CO/C=C(/C(=O)OC)c1ccccc1Oc1cc(Oc2ccccc2C#N)ncn1 [azoxystrobin] |  | Control value (Fusarium avenaceum): 67
CO/N=C(/C(=O)OC)c1ccccc1COc1ccccc1C [kresoxim-methyl] | 67 | 
COC(=O)N(OC)c1ccccc1COc1ccn(-c2ccc(Cl)cc2)n1 [pyraclostrobin] | 83 | 
COC(=O)NCc1cc(/C(C)=N/OCc2cccc(C)n2)ccc1Cl [pyribencarb] | 83 | 
CON=C(C(=O)OC)c1ccccc1CON=C(C)c1cccc(C(F)(F)F)c1 [trifloxystrobin] | 83 | 
